Earlier results, collected in PMC7956819, “Peptides from the Intestinal Tract of Breast Milk-Fed Infants Have Antimicrobial and Bifidogenic Activity” (International Journal of Molecular Sciences, 2021).
Entries after “also recorded” stand apart in the source; their conditions may differ.

Details: function listed in the MBPDB for the identical sequence; not tested here; cited from earlier work
Excerpt: page 3: Ta ble S1. List of known bioactive peptides in the infant intestinal samples.

Substance | Function (known bioactive peptides in the infant intestinal samples)
AASDISLLDAQSAPLR | Antimicrobial
ALKALPMHIR | Cell-proliferative
ALNEINQFYQK | ACE-inhibitory
ALPMHIR | ACE-inhibitory; also recorded: Cell-proliferative
AMKPWIQPK | ACE-inhib itory
DAQSAPLRVY | ACE-inhibitory
DKIYPSFQPQPLIYP | ACE-inhibitory
ENLHLPLP | ACE-inhibitory
ENLHLPLPLL | ACE-inhibitory
EPVLGPVRGPFP | ACE-inhibitory
FALPQYLK | ACE-inhibitory; also recorded: Antioxidant
FFVAPFPEVFGK | ACE-inhib itory
FPEVFGK | ACE-inhib itory
FQPQPLIYP | ACE-inhibitory
FSDKIAK | ACE-inhibitory; also recorded: Antimicrobial
FVAPFPEVFG | ACE-inhib itory
GLDIQKVAGT | Antimicrobial
HPHPHLSF | ACE-inhibitory
IGSENSEKTTMP | ACE-inhib itory
IIAEKTKIPAVF | Antimicrobial
IKHQGLPQEV | Antimicrobial
INNQFLPYPY | DPP-I V-inhibitory

Substance | Function (known bioactive peptides in the infant intestinal samples)
IQKVAGTW | ACE-inhibitory; also recorded: DPP-IV-inhibitory
IQPKTKVIPYVR | Antimicrobial
IYPSFQPQPLIYP | ACE-inhibitory
LDIQKVAGTW | ACE-inhibitory
LENLHLPLP | ACE-inhibitory
LIVTQTMK | Cytotoxic
LKALPMH | ACE-inhibitory; also recorded: DPP-IV-inhibitory
LKPTPEGDL | DPP-IV-inhibitory
LKPTPEGDLE | DPP-IV-inhibitory
LLNQELLLNPTHQIYPV | Antimicrobial
LLYQEPVLGPVRGPFPIIV | ACE-inhibitory
LPQNIPPLT | DPP-IV-inhibitory
LRLKKYKVPQL | Antimicrobial
LTDLENLHLP | ACE-inhibitory
LVYPFPGPI | ACE-inhibitory
LYQEPVLGPVRGPFPIIV | Immunomodulatory
MAIPPKKNQDKTEIPTINT | Antimicrobial
MPFPKYPVEP | ACE-inhibitory
NLHLPLP | ACE-inhibitory
NLHLPLPLL | ACE-inhibitory
PVVVPPFLQPE | Antimicrobial
